From patent EP3828186B1
Like-named read-outs stand apart in the source and are kept apart here.

Conditions: rcm bond, Grubbs II

C[C@@H]1/C=C/C[C@H](NC(=O)OCc2ccccc2)c2cc(ccn2)-c2c(cnn2COCC[Si](C)(C)C)NC1=O
ring closure, yield of all isomers (from C=CC[C@H](NC(=O)OCc1ccccc1)c1cc(-c2c(NC(=O)[C@H](C)C=C)cnn2COCC[Si](C)(C)C)ccn1, DCE, 108.0 mM, 120.0 °C, 0.5 h): 42%

[2H]C([2H])([2H])n1ncc2c1-c1ccnc(c1)[C@@H](NC(=O)OC(C)(C)C)CC=C[C@@H](C)C(=O)N2
ring closure, yield of all isomers (from [2H]C([2H])([2H])n1ncc(NC(=O)[C@H](C)C=C)c1-c1ccnc([C@H](CC=C)NC(=O)OC(C)(C)C)c1, DCE, 13.2 mM, 120.0 °C, 0.5 h): 26%

C[C@@H]1/C=C/C[C@H](NC(=O)OC(C)(C)C)c2ccnc(c2)-c2c(cnn2C)NC1=O
ring closure, yield of all isomers (from C=CC[C@H](NC(=O)OC(C)(C)C)c1ccnc(-c2c(NC(=O)[C@H](C)C=C)cnn2C)c1, DCE, 18.8 mM, 120.0 °C, 0.5 h): 19%

C[C@@H]1/C=C/C[C@H](NC(=O)OC(C)(C)C)c2cc(ccn2)-c2c(cnn2C)NC1=O
ring closure, yield of all isomers (from C=CC[C@H](NC(=O)OC(C)(C)C)c1cc(-c2c(NC(=O)[C@H](C)C=C)cnn2C)ccn1, DCE, 34.7 mM, 120.0 °C, 0.5 h): 23%

C[C@@H]1/C=C/C[C@H](NC(=O)OC(C)(C)C)c2cc(ccn2)-c2c(cnn2C(F)F)NC1=O
ring closure, yield of all isomers (from C=CC[C@H](NC(=O)OC(C)(C)C)c1cc(-c2c(NC(=O)[C@H](C)C=C)cnn2C(F)F)ccn1, EtOAc, 5.0 mM, 77.0 °C, 24.0 h): 76%
